Where two headings read alike, the source gives them in different places. Where a SMILES comes first, the peptide text is derived from it. Bridges are numbered along the chain shown (N, C = ends). [ ]: non-standard residue; d: D form. Trp(6-Cl) = N[C@@H](Cc1c[nH]c2cc(Cl)ccc12)C(=O)O; R8 = C=CCCCCCC[C@@](C)(N)C(=O)O; S5 = C=CCCC[C@](C)(N)C(=O)O; Ac3c = NC1(C(=O)O)CC1
What was measured:
[1] = target: HDMx (Homo sapiens, UniProt O15151); experiment: FP Competition Blinding Assay | HDMx IC50 (nM)
[2] = target: HDM2 (Homo sapiens, UniProt Q00987); experiment: FP Competition Blinding Assay | HDM2 IC50 (nM)
[3] = target: T1, MDMX (Homo sapiens, UniProt O15151); experiment: Competitive fluorescence polarization assay MDMX; format: binding; settings: Table 26B; competitive FP
T1 sequence (O15151 1-125): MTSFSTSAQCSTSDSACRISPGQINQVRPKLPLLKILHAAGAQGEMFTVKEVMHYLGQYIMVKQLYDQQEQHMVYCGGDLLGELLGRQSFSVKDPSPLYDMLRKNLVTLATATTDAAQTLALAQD
Experimental: Dilute MDMX (In-house, 40 kD) into FP buffer (High salt buffer—200 mM NaCl, 5 mM CHAPS, pH 7.5.) to make 300 nM (2×) working stock solution. • 2. Add 20 μl of 300 nM (2×) of protein stock solution into each well of 96-well black HE microplate (Molecular Devices) • 3. Dilute 1 mM (in 100% DMSO) of FAM labeled linear peptide with DMSO to 100 μM (dilution 1:10). Then, dilute from 100 μM to 10 μM with water (dilution 1:10) and then dilute with FP buffer from 10 μM to 40 nM (dilution 1:250). This is the working solution which will be a 10 nM concentration in well (dilution 1:4). Keep the diluted FAM labeled peptide in the dark until use. • 4. […] Dilute 10 mM (in 100% DMSO) with DMSO to 5 mM (dilution 1:2). Then, dilute from 5 mM to 500 μM with H2O (dilution 1:10) and then dilute with FP buffer from 500 μM to 20 μM (dilution 1:25). […] Transfer 10 μl of serial diluted unlabeled peptides to each well which is filled with 20 μl of 300 nM of protein. • 7. Add 10 μl of 10 nM (4×) of FAM labeled peptide into each well and incubate for 3 hr to read.

[4] = target: MDM2 (Homo sapiens, UniProt Q00987); experiment: Competitive fluorescence polarization assay for MDM2; format: binding
Experimental: Dilute 1 mM (in 100% DMSO) of FAM labeled linear peptide with DMSO to 100 μM (dilution 1:10). Then, dilute from 100 μM to 10 μM with water (dilution 1:10) and then dilute with FP buffer from 10 μM to 40 nM (dilution 1:250). This is the working solution which will be a 10 nM concentration in well (dilution 1:4). Keep the diluted FAM labeled peptide in the dark until use. • 4. […] Dilute 10 mM (in 100% DMSO) with DMSO to 5 mM (dilution 1:2). Then, dilute from 5 mM to 500 μM with H2O (dilution 1:10) and then dilute with FP buffer from 500 μM to 20 μM (dilution 1:25). […] Add 10 μl of 10 nM (4×) of FAM labeled peptide into each well and incubate for 3 hr to read.

[5] = test system: SJSA-1 cells; experiment: Cell lysis by peptidomimetic macrocycles (LDH release); format: cell-based; settings: 1 h incubation
Experimental: On the day of the assay, media was exchanged with RPMI 1% FBS media, 90 μl of media per well.
10 mM stock solutions of the peptidomimetic macrocycles were prepared in 100% DMSO.
The negative control (non-lytic) sample was 0.5% DMSO alone and positive control (lytic) samples include 10 uM Melittin and 1% Triton X-100.
Cell plates were incubated for 1 hour at 37° C. After the 1 hour incubation, the morphology of the cells is examined by microscope and then the plates were centrifuged at 1200 rpm for 5 minutes at room temperature. 40 μl of supernatant for each peptidomimetic macrocyle and control sample is transferred to clear assay plates.

[6] = test system: Caspase 3 activation in SJSA1 cells; experiment: Caspase 3 detection assay; format: cell-based; settings: 48 h, Caspase 3 activation over DMSO-treated cells
Experimental: Read on Synergy Biotek multiplate reader for luminescence. Data is analyzed as Caspase 3 activation over DMSO-treated cells.

[7] = Table 26B, competitive FP, read-out: Ki (MDM2)

HDM2, sequence (Q00987 whole entry, looked up): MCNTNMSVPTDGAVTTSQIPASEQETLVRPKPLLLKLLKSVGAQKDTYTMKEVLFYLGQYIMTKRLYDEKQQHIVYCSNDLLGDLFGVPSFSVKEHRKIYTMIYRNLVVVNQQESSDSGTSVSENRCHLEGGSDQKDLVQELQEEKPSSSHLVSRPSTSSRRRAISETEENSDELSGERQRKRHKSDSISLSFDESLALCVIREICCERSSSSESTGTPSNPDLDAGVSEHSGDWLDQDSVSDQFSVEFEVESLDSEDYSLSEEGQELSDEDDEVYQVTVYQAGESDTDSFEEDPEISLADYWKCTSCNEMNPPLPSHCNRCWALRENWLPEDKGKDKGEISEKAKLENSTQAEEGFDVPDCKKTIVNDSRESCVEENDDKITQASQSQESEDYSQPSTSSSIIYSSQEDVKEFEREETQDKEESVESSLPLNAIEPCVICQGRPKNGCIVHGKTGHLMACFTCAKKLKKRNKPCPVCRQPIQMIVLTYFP
MDM2, sequence (Q00987 1-125): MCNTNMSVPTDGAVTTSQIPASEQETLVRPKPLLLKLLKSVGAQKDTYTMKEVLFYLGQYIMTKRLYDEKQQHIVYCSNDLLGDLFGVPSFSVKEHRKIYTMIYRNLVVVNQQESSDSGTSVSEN
HDMx, sequence (O15151 whole entry, looked up): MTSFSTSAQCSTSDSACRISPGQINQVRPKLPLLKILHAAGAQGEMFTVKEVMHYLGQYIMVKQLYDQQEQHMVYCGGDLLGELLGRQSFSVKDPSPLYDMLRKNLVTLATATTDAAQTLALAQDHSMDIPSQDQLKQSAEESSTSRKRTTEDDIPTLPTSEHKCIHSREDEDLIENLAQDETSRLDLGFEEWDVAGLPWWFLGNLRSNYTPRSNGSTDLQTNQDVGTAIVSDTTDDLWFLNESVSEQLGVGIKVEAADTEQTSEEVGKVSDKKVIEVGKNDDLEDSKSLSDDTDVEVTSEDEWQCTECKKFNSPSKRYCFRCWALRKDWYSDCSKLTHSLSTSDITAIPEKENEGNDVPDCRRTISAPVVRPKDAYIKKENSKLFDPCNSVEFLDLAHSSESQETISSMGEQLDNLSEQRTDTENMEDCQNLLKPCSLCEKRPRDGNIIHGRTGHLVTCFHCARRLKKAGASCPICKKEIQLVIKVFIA

CC(=O)N[C@@H](CC(C)C)C(=O)N[C@H](C(=O)N[C@@H](Cc1ccccc1)C(=O)N[C@]1(C)CCCCCCC=CCCC[C@@](C)(C(=O)N[C@@H](CO)C(N)=O)NC(=O)[C@H](CC(C)C)NC(=O)[C@H](C)NC(=O)[C@H](C)NC(=O)[C@H](Cc2c[nH]c3ccccc23)NC(=O)[C@H](Cc2ccc(O)cc2)NC(=O)[C@H](C)NC1=O)[C@@H](C)O [SP-351, Ac- L T F $r8 A Y W A A L $ S -NH2] (Ac-LTF[R8]AYWAAL[S5]S-NH2; staple 4-11 (inferred))
IC50 [1]: 143 nM | IC50 [2]: 47.2 nM

CC(=O)N[C@@H](CC(C)C)C(=O)N[C@H](C(=O)N[C@@H](Cc1ccccc1)C(=O)N[C@]1(C)CCCCCCn2nncc2CCC[C@@](C)(C(=O)N[C@@H](CO)C(=O)N[C@@H](C)C(=O)N[C@@H](C)C(N)=O)NC(=O)[C@H](CC2CCC2)NC(=O)[C@H](CCC(N)=O)NC(=O)[C@H](C)NC(=O)[C@H](Cc2c[nH]c3ccccc23)NC(=O)[C@H](Cc2ccc(O)cc2)NC(=O)[C@H](CCC(=O)O)NC1=O)[C@@H](C)O [SP456, Ac-LTF$5rn6EYWAQCba$5a5SAA-NH2]
Ki [3]: 10 to 100 nM | Ki [4, 7]: < 10 nM

CC(=O)N[C@@H](CC(C)C)C(=O)N[C@H](C(=O)N[C@@H](Cc1ccccc1)C(=O)N[C@]1(C)CCCCCCn2cc(nn2)CCC[C@@](C)(C(=O)N[C@@H](C)C(=O)N[C@@H](C)C(=O)N[C@@H](C)C(=O)N[C@@H](C)C(=O)N[C@@H](C)C(=O)N[C@H](C)C(N)=O)NC(=O)[C@H](CC(C)C)NC(=O)[C@H](CCC(N)=O)NC(=O)[C@H](C)NC(=O)[C@H](Cc2c[nH]c3ccccc23)NC(=O)[C@H](Cc2ccc(O)cc2)NC(=O)[C@H](CCC(=O)O)NC1=O)[C@@H](C)O [SP451, Ac-LTF$4rn6EYWAQL$4a5AAAAAa-NH2]
Ki [4]: 10 to 100 nM

CC(=O)N[C@@H](CC(C)C)C(=O)N[C@H](C(=O)N[C@@H](Cc1ccccc1)C(=O)N[C@]1(C)CCCCCCn2nnc(c2-c2ccccc2)CCC[C@@](C)(C(=O)N[C@@H](CO)C(=O)N[C@@H](C)C(=O)N[C@@H](C)C(N)=O)NC(=O)[C@H](CC2CCC2)NC(=O)[C@H](CCC(N)=O)NC(=O)[C@H](C)NC(=O)[C@H](Cc2c[nH]c3ccccc23)NC(=O)[C@H](Cc2ccc(O)cc2)NC(=O)[C@H](CCC(=O)O)NC1=O)[C@@H](C)O [SP465, Ac-LTF$4rn6EYWAQCba5Ph-$4a5SAA-NH2]
Ki [3]: < 10 nM | Ki [4, 7]: < 10 nM

287 (LTFAEYWAQAAAAIA; not fully specified; Ac, NH2, staple, difluoro-Phe, Cba; N-term Ac; MOD_RES (3)..(3): 3,4-difluoro-Phe; MOD_RES (4)..(4): Alpha-Me R-azide 1,4 triazole (6 carbon) alanine olefin amino acid connected by an all-carbon crosslinker comprising one double bond; misc_feature (4)..(11): C) [compound 287]
6.25 uM % Lysed cells (1 h LDH) [5]: 0% | 25 uM % Lysed cells (1 h LDH) [5]: 11% | 50 uM % Lysed cells (1 h LDH) [5]: 56% | caspase 0.3 uM ([6]; 0.3 uM): 1 | caspase 1 uM ([6]; 1 uM): 1 | caspase 3 uM ([6]; 3 uM): 3 | caspase 10 uM ([6]; 10 uM): 11 | caspase 30 uM ([6]; 30 uM): 23

CC(=O)N[C@@H](CC(C)C)C(=O)N[C@H](C(=O)N[C@@H](Cc1ccccc1)C(=O)N[C@]1(C)CCCCCCC=CCCC[C@@](C)(C(=O)N[C@@H](CO)C(N)=O)NC(=O)[C@H](CC(C)C)NC(=O)[C@H](CCC(N)=O)NC(=O)[C@H](C)NC(=O)[C@H](Cc2c[nH]c3ccccc23)NC(=O)[C@H](Cc2ccc(O)cc2)NC(=O)[C@H](Cc2ccccc2)NC1=O)[C@@H](C)O [SP-267, Ac- L T F $r8 F Y W A Q L $ S -NH2] (Ac-LTF[R8]FYWAQL[S5]S-NH2; staple 4-11 (inferred))
IC50 [2]: 191 nM

CC(=O)N[C@@H](CC(C)C)C(=O)N[C@H](C(=O)N[C@@H](Cc1ccccc1)C(=O)N[C@]1(C)CCCCCCC=CCCC[C@@](C)(C(=O)N[C@@H](CO)C(N)=O)NC(=O)[C@H](CC(C)C)NC(=O)[C@H](CCC(N)=O)NC(=O)[C@H](C)NC(=O)[C@H](Cc2c[nH]c3ccccc23)NC(=O)[C@H](Cc2ccc(O)cc2)NC(=O)[C@H](C(C)C)NC1=O)[C@@H](C)O [SP-266, Ac- L T F $r8 V Y W A Q L $ S -NH2] (Ac-LTF[R8]VYWAQL[S5]S-NH2; staple 4-11 (inferred))
IC50 [1]: 301 nM

CC(=O)N[C@@H](CC(C)C)C(=O)N[C@H](C(=O)N[C@@H](C)C(=O)N[C@]1(C)CCCCCCn2cc(nn2)CCC[C@@](C)(C(=O)N[C@@H](CO)C(=O)N[C@@H](C)C(=O)N[C@@H](C)C(N)=O)NC(=O)[C@H](CC2CCC2)NC(=O)[C@H](CCC(N)=O)NC(=O)[C@H](C)NC(=O)[C@H](Cc2c[nH]c3ccccc23)NC(=O)[C@H](Cc2ccc(O)cc2)NC(=O)[C@H](CCC(=O)O)NC1=O)[C@@H](C)O [SP460, Ac-LTA$4rn6EYWAQCba$4a5SAA-NH2]
Ki [3]: > 1000 nM | Ki [4, 7]: > 1000 nM

414 (LTFAXYWAQLAAALA; not fully specified; Ac, NH2, staple, Cou4, Nle; N-term Ac; MOD_RES (4)..(4): Alpha-Me R-azide 1,4 triazole (6 carbon) alanine olefin amino acid connected by an all-carbon crosslinker comprising one double bond; misc_feature (4)..(11): Crosslink between residues; MOD_RES () [compound 414]
6.25 uM % Lysed cells (1 h LDH) [5]: 3% | 25 uM % Lysed cells (1 h LDH) [5]: 2% | 50 uM % Lysed cells (1 h LDH) [5]: 2%

CCCC[C@H](NC(=O)[C@H](C)NC(=O)[C@H](C)NC(=O)[C@]1(C)CCCc2cn(nn2)CCCCCC[C@@](C)(NC(=O)[C@H](Cc2ccccc2)NC(=O)[C@@H](NC(=O)[C@H](CC(C)C)NC(C)=O)[C@@H](C)O)C(=O)N[C@@H](C)C(=O)N[C@@H](Cc2ccc(O)cc2)C(=O)N[C@@H](Cc2c[nH]c3ccccc23)C(=O)N[C@@H](C)C(=O)N[C@@H](CCC(N)=O)C(=O)N[C@@H](CC(C)C)C(=O)N1)C(=O)N[C@@H](C)C(N)=O [SP449, Ac-LTF$4rn6AYWAQL$4a5AANleA-NH2]
IC50 [3]: < 10 nM | Ki [3]: < 10 nM | IC50 ([4]; Table 26B, competitive FP): < 10 nM | Ki [4, 7]: < 10 nM

CC(=O)N[C@@H](CC(C)C)C(=O)N[C@H](C(=O)N[C@@H](Cc1ccccc1)C(=O)N[C@]1(C)CCCCCCn2cc(nn2)CCC[C@@](C)(C(=O)N[C@@H](C)C(=O)N[C@@H](C)C(=O)N[C@@H](C)C(=O)N[C@@H](C)C(=O)N[C@@H](C)C(=O)N[C@H](C)C(N)=O)NC(=O)[C@H](CC(C)C)NC(=O)[C@H](CCC(N)=O)NC(=O)[C@H](C)NC(=O)[C@H](Cc2c[nH]c3ccccc23)NC(=O)[C@H](Cc2ccc(O)cc2)NC(=O)[C@H](C)NC1=O)[C@@H](C)O [SP450, Ac-LTF$4rn6AYWAQL$4a5AAAAAa-NH2]
Ki [4]: 100 to 1000 nM

CC(=O)N[C@@H](CC(C)C)C(=O)N[C@H](C(=O)N[C@@H](Cc1ccccc1)C(=O)N[C@]1(C)CCCCCCn2nnc(c2I)CCC[C@@](C)(C(=O)N[C@@H](CO)C(=O)N[C@@H](C)C(=O)N[C@@H](C)C(N)=O)NC(=O)[C@H](CC2CCC2)NC(=O)[C@H](CCC(N)=O)NC(=O)[C@H](C)NC(=O)[C@H](Cc2c[nH]c3ccccc23)NC(=O)[C@H](Cc2ccc(O)cc2)NC(=O)[C@H](CCC(=O)O)NC1=O)[C@@H](C)O [SP457, Ac-LTF$4rn6EYWAQCba5I-$4a5SAA-NH2]
Ki [3]: < 10 nM | Ki [4, 7]: < 10 nM

CC(=O)N[C@@H](CC(C)C)C(=O)N[C@H](C(=O)N[C@@H](C)C(=O)N[C@]1(C)CCCCCCn2nncc2CCC[C@@](C)(C(=O)N[C@@H](CO)C(=O)N[C@@H](C)C(=O)N[C@@H](C)C(N)=O)NC(=O)[C@H](CC2CCC2)NC(=O)[C@H](CCC(N)=O)NC(=O)[C@H](C)NC(=O)[C@H](Cc2c[nH]c3ccccc23)NC(=O)[C@H](Cc2ccc(O)cc2)NC(=O)[C@H](CCC(=O)O)NC1=O)[C@@H](C)O [SP459, Ac-LTA$5rn6EYWAQCba$5a5SAA-NH2]
Ki [3]: > 1000 nM | Ki [4, 7]: > 1000 nM

CC(=O)N[C@@H](Cc1ccccc1)C(=O)N[C@]1(C)CCCCCCC=CCCC[C@@](C)(C(=O)N[C@@H](C)C(N)=O)NC(=O)[C@H](CC(C)C)NC(=O)C2(CC2)NC(=O)[C@H](CCC(=O)O)NC(=O)[C@H](Cc2c[nH]c3cc(Cl)ccc23)NC(=O)[C@H](Cc2ccc(O)cc2)NC(=O)[C@H](C)NC1=O [SP-128, Ac- F $r8 A Y 6clW E Ac3c L $ A -NH2] (Ac-F[R8]AY[Trp(6-Cl)]E[Ac3c]L[S5]A-NH2; staple 2-9 (inferred))
IC50 [2]: 114 nM

CC(=O)N[C@@H](Cc1c[nH]c2ccccc12)C(=O)N[C@H](C(=O)N[C@@H](Cc1ccccc1)C(=O)N[C@]1(C)CCCCCCC=CCCC[C@@](C)(C(=O)N[C@@H](CO)C(N)=O)NC(=O)[C@H](CC(C)C)NC(=O)[C@H](CCC(N)=O)NC(=O)[C@H](C)NC(=O)[C@H](Cc2c[nH]c3ccccc23)NC(=O)[C@H](Cc2ccc(O)cc2)NC(=O)[C@H](Cc2c[nH]cn2)NC1=O)[C@@H](C)O [SP-256, Ac- W T F $r8 H Y W A Q L $ S -NH2] (Ac-WTF[R8]HYWAQL[S5]S-NH2; staple 4-11 (inferred))
IC50 [1]: 204 nM

413 (LTFAXYWAQLAAALA; not fully specified; Ac, NH2, staple, Cou4, Nle; N-term Ac; MOD_RES (4)..(4): Alpha-Me R-azide 1,4 triazole (6 carbon) alanine olefin amino acid connected by an all-carbon crosslinker comprising one double bond; misc_feature (4)..(11): Crosslink between residues; MOD_RES () [compound 413]
6.25 uM % Lysed cells (1 h LDH) [5]: 5% | 25 uM % Lysed cells (1 h LDH) [5]: 3% | 50 uM % Lysed cells (1 h LDH) [5]: 3%
